Drawing on DBAASP, this text covers MIC for eight molecules.

Converted amounts (≈) assume the structure as drawn. “And” between values parts separate entries of the source, which are not always exact repeats. Identical values can stand only once.

Some test systems named below: Staphylococcus capitis 1; Bacillus megaterium Bm11; Escherichia coli D21; Saccharomyces cerevisiae; Acinetobacter junii RT-4; Alternaria alternata; Botrytis cinerea; Cladosporium herbarum.
What all share (experiment): ≥ marks a high value that may be exact or a test limit, other limits are often not marked, values filed in µg/mL are converted to µM
Assay [1] concerns Candida albicans ATCC 10231.
In assay [2] the test system is Pseudomonas aeruginosa ATCC 15692.
The test system of assay [3] is Staphylococcus epidermidis ATCC 12228.
Assay [4] relates to Staphylococcus aureus Cowan 1.
For assay [5], the system named is Acinetobacter baumannii ATCC 19606.
For assay [6], the system named is Staphylococcus aureus ATCC 25923.
Assay [7] relates to Pseudomonas aeruginosa ATCC 27853.
The test system of assay [8] is Escherichia coli ATCC 25922.
The subject of assay [9] is Schizosaccharomyces pombe.
The test system of assay [10] is Pseudomonas syringae pv. tabaci 1918NCPPB.
The test system of assay [11] is Streptococcus pyogenes ATCC 21547.
The test system of assay [12] is Enterococcus faecalis ATCC 29212.
Assay [13] deals with Yersinia pseudotuberculosis YPIII.
Assay [14] has as its system Staphylococcus aureus ATCC 6538.
The test system of assay [15] is Escherichia coli ATCC 11219.
Assay [16] concerns Pseudomonas aeruginosa ATCC 13388.
Assay [17] has as its system Klebsiella pneumoniae ATCC 10031.
Assay [18] relates to Salmonella enterica subsp. enterica serovar Typhimurium ATCC 14028.
For assay [19], the system named is Pseudomonas aeruginosa ATCC 47085.
In assay [20] the test system is Clavibacter michiganensis subsp. michiganensis DSM 46294.
The subject of assay [21] is Pseudomonas syringae pv. syringae DSM 10604.
Assay [22] deals with Xanthomonas vesicatoria DSM 50861.
Assay [23] relates to Pectobacterium carotovorum subsp. carotovorum DSM 30168.
For assay [24], the system named is Pseudomonas syringae pv. tomato DC3000.
Assay [25] concerns Pseudomonas corrugata DSM 7228.
Assay [26] deals with Staphylococcus aureus 90857.
For assay [27], the system named is Candida albicans ATCC 37092.
Assay [28] deals with Staphylococcus aureus ATCC 29213.
The subject of assay [29] is Candida tropicalis ATCC 37097.

As a reminder, the MIC is the lowest concentration that inhibits growth of the organism. High values mean weaker potency, low ones greater potency. `CC[C@H](C)[C@H](NC(=O)[C@H](CCCN=C(N)N)NC(=O)[C@@H]1CCCN1C(=O)[C@H](CC(C)C)NC(=O)[C@H](Cc1ccccc1)NC(=O)[C@H](CCCCN)NC(=O)[C@H](CO)NC(=O)[C@H](Cc1ccccc1)NC(=O)[C@H](Cc1c[nH]c2ccccc12)NC(=O)[C@@H]1CCCN1C(=O)[C@@H](NC(=O)[C@@H](N)Cc1ccccc1)C(C)C)C(=O)N[C@@H](CC(C)C)C(N)=O` [FVPWFSKFLPRIL]: the MIC was 12 µM (≈ 19.8 µg/mL) in the assay with Staphylococcus capitis 1; 12 µM (≈ 19.8 µg/mL) in assay [1]; ≥ 48 µM in [2]; 12 µM (≈ 19.8 µg/mL) in assay [3]; 24 µM (≈ 39.6 µg/mL) in assay [4]; 3 µM (≈ 4.95 µg/mL) against Bacillus megaterium Bm11. The MIC in [5] is 48 µM (≈ 79.2 µg/mL); in [6] it was 24 µM (≈ 39.6 µg/mL); in [7] it was > 48 µM; in [8], 48 µM (≈ 79.2 µg/mL); against Escherichia coli D21, 24 µM (≈ 39.6 µg/mL); in the assay on Saccharomyces cerevisiae, 12 µM (≈ 19.8 µg/mL). The MIC was 12 µM (≈ 19.8 µg/mL) in assay [9]; 24 µM (≈ 39.6 µg/mL) in assay [10]; 12 µM (≈ 19.8 µg/mL) against Acinetobacter junii RT-4; 12 µM (≈ 19.8 µg/mL) in [11]; 48 µM (≈ 79.2 µg/mL) in [12]; 24 µM (≈ 39.6 µg/mL) in assay [13].
Take `CC[C@H](C)[C@H](NC(=O)CN)C(=O)N[C@@H](Cc1cnc[nH]1)C(=O)N[C@@H](CC(=O)O)C(=O)N[C@H](C(=O)N[C@@H](CC(C)C)C(=O)N[C@@H](CCCCN)C(=O)N[C@@H](Cc1ccc(O)cc1)C(=O)N[C@@H](C)C(=O)N[C@@H](CCCCN)C(=O)N1CCC[C@H]1C(=O)N[C@@H](CO)C(N)=O)[C@@H](C)CC` [GIHDILKYAKPS]: the MIC in [14] was 10 µM (≈ 13.4 µg/mL); in [15] it was 5 µM (≈ 6.7 µg/mL); in assay [16], 15 µM (≈ 20.1 µg/mL); in assay [17] it was 10 µM (≈ 13.4 µg/mL); in assay [18], 10 µM (≈ 13.4 µg/mL).
`CC[C@H](C)[C@H](NC(=O)CN)C(=O)N[C@@H](CCCN=C(N)N)C(=O)N[C@@H](CC(=O)O)C(=O)N[C@H](C(=O)N[C@@H](CC(C)C)C(=O)N[C@@H](CCCCN)C(=O)N[C@@H](Cc1ccc(O)cc1)C(=O)NCC(=O)N[C@@H](CCCCN)C(=O)N1CCC[C@H]1C(=O)N[C@@H](CO)C(N)=O)[C@@H](C)CC` [GIRDILKYGKPS]: the MIC in assay [14] was found to be 10 µM (≈ 13.5 µg/mL); in assay [15], 5 µM (≈ 6.73 µg/mL); in assay [16], 20 µM (≈ 26.9 µg/mL); in [17], 5 µM (≈ 6.73 µg/mL); in [18], 5 µM (≈ 6.73 µg/mL).
For the molecule `CC[C@H](C)[C@H](NC(=O)[C@H](CCCN=C(N)N)NC(=O)[C@H](CC(C)C)NC(=O)[C@H](Cc1ccccc1)NC(=O)[C@H](CCC(=O)O)NC(=O)[C@H](CCCCN)NC(=O)[C@H](Cc1c[nH]c2ccccc12)NC(=O)[C@H](CCCCN)NC(=O)[C@H](Cc1c[nH]c2ccccc12)NC(=O)CNC(=O)[C@H](Cc1c[nH]c2ccccc12)NC(=O)[C@H](CCCCN)NC(=O)[C@H](Cc1c[nH]c2ccccc12)NC(=O)[C@H](CC(C)C)NC(=O)[C@H](CC(C)C)NC(=O)CN)C(=O)N[C@H](C(=O)NCC(=O)N[C@@H](Cc1ccc(O)cc1)C(N)=O)C(C)C` [GLLWKWGWKWKEFLRIVGY], the MIC in assay [19] is ≥ 415 µM; in assay [6] it was > 415 µM.
Take `CC(C)C[C@H](NC(=O)[C@H](C)NC(=O)[C@H](CCCN=C(N)N)NC(=O)[C@H](CCCCN)NC(=O)[C@H](CC(C)C)NC(=O)[C@H](C)NC(=O)[C@H](CCCN=C(N)N)NC(=O)[C@H](C)NC(=O)[C@H](C)NC(=O)[C@H](CCCCN)NC(=O)[C@H](CCCCN)NC(=O)[C@@H](N)CCCCN)C(N)=O` [KKKAARALKRAL]: the MIC in the assay with Alternaria alternata is ≥ 73.9 µM; in assay [20], 29.5 µM (≈ 40 µg/mL); in the assay on Botrytis cinerea, ≥ 73.9 µM; in assay [21] it was 29.5 µM (≈ 40 µg/mL); in assay [22], 29.5 µM (≈ 40 µg/mL); in assay [23], 29.5 µM (≈ 40 µg/mL). Further, the results for the MIC (in assay [24]; in assay [25]; in the assay on Cladosporium herbarum) were 7.39 µM (≈ 9.99 µg/mL), 29.5 µM (≈ 40 µg/mL) and 29.5 µM (≈ 40 µg/mL), respectively.
Consider `CC[C@H](C)[C@H](NC(=O)[C@H](CC(C)C)NC(=O)[C@@H](N)CC(C)C)C(=O)N[C@@H](CCCN=C(N)N)C(=O)N[C@@H](C)C(=O)N[C@@H](C)C(=O)N[C@@H](CCCCN)C(=O)N[C@@H](CCCCN)C(=O)N[C@@H](Cc1ccccc1)C(=O)N[C@H](C(=O)N[C@@H](CCCCN)C(=O)N[C@@H](CCCCN)C(N)=O)[C@@H](C)CC` [LLIRAAKKFIKK], for which the MIC is ≥ 70 µM against Alternaria alternata; 28 µM (≈ 40 µg/mL) in [20]; ≥ 62.5 µM in assay [26]; ≥ 70 µM against Botrytis cinerea; 28 µM (≈ 40 µg/mL) in assay [21]; 28 µM (≈ 40 µg/mL) in assay [22]. Moreover, the MIC (in assay [23]; in assay [24]; in assay [25]; against Cladosporium herbarum) was 28 µM (≈ 40 µg/mL) each time.
`CC(C)C[C@H](NC(=O)[C@H](C)NC(=O)[C@H](CCCCN)NC(=O)[C@H](CCCCN)NC(=O)[C@H](CC(C)C)NC(=O)[C@H](Cc1ccccc1)NC(=O)[C@H](CCCN=C(N)N)NC(=O)[C@@H](N)CC(C)C)C(=O)N[C@@H](CCCCN)C(=O)N[C@@H](CCCCN)C(=O)N[C@@H](CC(C)C)C(=O)N[C@@H](Cc1ccccc1)C(N)=O` [LRFLKKALKKLF]: the MIC in assay [20] amounted to 0.166 µM (≈ 0.25 µg/mL); in assay [26], 0.625 µM (≈ 0.94 µg/mL); in assay [21], 0.0664 µM (≈ 0.0999 µg/mL); in assay [22], 0.166 µM (≈ 0.25 µg/mL); in assay [23] it was 0.664 µM (≈ 0.999 µg/mL); in [24], 0.332 µM (≈ 0.5 µg/mL). In addition, in assay [25], the MIC turned out to be 0.332 µM (≈ 0.5 µg/mL).
For the molecule `CC(C)C[C@H](NC(=O)[C@@H](N)CCCN=C(N)N)C(=O)N[C@@H](Cc1ccc(O)cc1)C(=O)N[C@@H](CCCN=C(N)N)C(N)=O` [RLYR], the MIC in assay [27] is 10 µM and 6.4 µM; in [28], 4.5 µM and 10.2 µM; in [8], 6.1 µM and 10.2 µM; in assay [29] it was 1.3 µM and 1.8 µM; in assay [12] it was 4.7 µM and 10.2 µM.
